From US3997517A, “Cyclic somatostatin disulfide analogues” (American Home Products Corporation, priority 1976, dated 1976)

Legend:
Type in all cases: in vivo
[1] = system: blood serum growth hormone; test: Blood serum growth hormone in Nembutal-treated rats, radioimmunoassay; details: Nembutal 50 mg/kg i.p., blood sampled 15 min later, control 291±47, *p < 0.01
Method: (§1) The in vivo activity of the cyclic somatostatin disulfide analogues of this invention was established with cyclic somatostatin disulfide as a representative member of the family of compounds by comparing the blood serum growth hormone, glucagon and insulin concentrations found in rats grouped for control, somatostatin and cyclic somatostatin disulfide comparison. The rats, weighing between 200 and 250 grams were treated with Nembutal, 50 milligrams per kilogram intraperitoneally. After five minutes the somatostatin, control and cyclic somatostatin disulfide administrations were made subcutaneously. The rats blood was sampled fifteen minutes later and the growth hormone, glucagon and insulin levels were determined by radioimmunoassay.

blood serum glucagon = test: Blood serum glucagon in Nembutal-treated rats, radioimmunoassay; details: Nembutal 50 mg/kg i.p., blood sampled 15 min later
Method: as §1

blood serum insulin = test: Blood serum insulin in Nembutal-treated rats, radioimmunoassay; details: Nembutal 50 mg/kg i.p., blood sampled 15 min later
Method: as §1

| SMILES | GH ([1]; dose 3000 μg/kg subcutaneously) | Glucagon (blood serum glucagon; dose 3000 μg/kg subcutaneously, control 33±2) | Insulin (blood serum insulin; dose 3000 μg/kg subcutaneously, control 272±39) | GH ([1]; dose 200 μg/kg subcutaneously) | Glucagon (blood serum glucagon; dose 200 μg/kg subcutaneously, control 33±2, *p < 0.01) | Insulin (blood serum insulin; dose 200 μg/kg subcutaneously, control 272±39, +p < 0.05) |
| --- | --- | --- | --- | --- | --- | --- |
| C[C@@H]1NC(=O)[C@@H]2CSSC[C@H](NC(=O)CNC1=O)C(=O)N[C@@H](CCCCN)C(=O)N[C@@H](CC(N)=O)C(=O)N[C@@H](Cc1ccccc1)C(=O)N[C@@H](Cc1ccccc1)C(=O)N[C@@H](Cc1c[nH]c3ccccc13)C(=O)N[C@@H](CCCCN)C(=O)N[C@@H]([C@@H](C)O)C(=O)N[C@@H](Cc1ccccc1)C(=O)N[C@@H]([C@@H](C)O)C(=O)N[C@@H](CO)C(=O)N2 [Example IV, Cyclo-L-cysteinyl-L-alanyl-glycyl-L-cysteinyl-L-lysyl-L-asparaginyl-L-phenyl-alanyl-L-phenylalanyl-L-tryptophyl-L-lysyl-L-threonyl-L-phenylalanyl-L-threonyl-L-serine (1-4 disulfide)] | 40 ± 4 ng/mL | 29.7 ± 4 pg/mL | 308 ± 30 µU/mL | – | – | – |
| C[C@H](N)C(=O)NCC(=O)N[C@H]1CSSC[C@@H](C(=O)O)NC(=O)[C@H](CO)NC(=O)[C@H]([C@@H](C)O)NC(=O)[C@H](Cc2ccccc2)NC(=O)[C@H]([C@@H](C)O)NC(=O)[C@H](CCCCN)NC(=O)[C@H](Cc2c[nH]c3ccccc23)NC(=O)[C@H](Cc2ccccc2)NC(=O)[C@H](Cc2ccccc2)NC(=O)[C@H](CC(N)=O)NC(=O)[C@H](CCCCN)NC1=O [Somatostatin, somatostatin] | – | – | – | 40 ± 4 ng/mL | 17 ± 2 pg/mL | 161 ± 21 µU/mL |
